Reference: patent US20040048838A1, “Meiosis regulating compounds” (priority 1995, published 2004)

Row | Compound | melting point
1 | C[C@H](CCC(=O)N(C)C)[C@H]1CC=C2C3=C(CC[C@@]21C)[C@@]1(C)CC[C@H](O)C(C)(C)[C@@H]1CC3 | 192 to 195 °C
2 | CC(C)CCC[C@@H](C)[C@H]1[C@@H](O)C[C@H]2C3=CC=C4C(C)(C)[C@@H](O)CC[C@]4(C)[C@H]3CC[C@]12C | 171 to 173 °C

The next lines start with the values.

Row | melting point | Compound
3 | 104.7 °C | CC(C)CCC[C@@H](C)[C@H]1CC=C2C3=C(CC[C@@]21C)[C@@]1(C)CC=CCC1CC3 (stereo partly drawn)
4 | 180 to 181 °C | C[C@@H](CO)CCC[C@@H](C)[C@H]1CC=C2C3=C(CC[C@@]21C)[C@@]1(C)CC[C@H](O)C(C)(C)[C@@H]1CC3
5 | 145 to 145.5 °C | C[C@@H](CCl)CCC[C@@H](C)[C@H]1CC=C2C3=C(CC[C@@]21C)[C@@]1(C)CC[C@H](O)C(C)(C)[C@@H]1CC3
6 | 148 °C | C[C@@H](CI)CCC[C@@H](C)[C@H]1CC=C2C3=C(CC[C@@]21C)[C@@]1(C)CC[C@H](O)C(C)(C)[C@@H]1CC3
